What is called IC50 is the midpoint of a concentration-inhibition curve. What is called bioavailability is dose-corrected exposure relative to a reference, in per cent. A low value points to poor availability. As a reminder, the half-life is the time needed for the level to fall by half in the phase considered. Higher therefore signals slow loss. In general, Papp refers to a coefficient for how fast a substance crosses the barrier. One may read the clearance as the volume of plasma or blood freed of the substance per unit of time. Higher therefore signals efficient removal. For orientation: solubility means how much of the substance goes into solution per volume.

≈ marks a conversion by molar mass, not a printed value.

One data set deals with T1, Cathepsin K (Homo sapiens, UniProt P43235).
T1 sequence (P43235 whole entry): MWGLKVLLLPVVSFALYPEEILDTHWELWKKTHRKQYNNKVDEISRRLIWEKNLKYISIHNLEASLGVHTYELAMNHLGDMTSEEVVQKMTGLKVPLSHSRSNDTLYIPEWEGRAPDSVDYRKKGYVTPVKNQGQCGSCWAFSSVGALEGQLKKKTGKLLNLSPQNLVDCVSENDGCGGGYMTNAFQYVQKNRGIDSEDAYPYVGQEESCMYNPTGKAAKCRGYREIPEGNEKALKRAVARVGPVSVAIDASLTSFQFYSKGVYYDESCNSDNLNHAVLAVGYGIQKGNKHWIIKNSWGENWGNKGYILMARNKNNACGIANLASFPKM
Put plainly: Inhibition of human recombinant cathepsin K.

A short description of data set [1]: Inhibition of human recombinant cathepsin L.
Data set [2] is described as follows: Oral bioavailability in Han Wistar rat. Format: ADME, organism-based. To be noted: in vivo.
The nature of data set [3]: Terminal elimination half life in iv dosed Han Wistar rat. Format: ADME, organism-based. The settings on record: in vivo.
In another data set the target is Cathepsin S (Homo sapiens, UniProt P25774). Put plainly: Inhibition of human recombinant cathepsin S.
Chain of Cathepsin S (P25774 whole entry): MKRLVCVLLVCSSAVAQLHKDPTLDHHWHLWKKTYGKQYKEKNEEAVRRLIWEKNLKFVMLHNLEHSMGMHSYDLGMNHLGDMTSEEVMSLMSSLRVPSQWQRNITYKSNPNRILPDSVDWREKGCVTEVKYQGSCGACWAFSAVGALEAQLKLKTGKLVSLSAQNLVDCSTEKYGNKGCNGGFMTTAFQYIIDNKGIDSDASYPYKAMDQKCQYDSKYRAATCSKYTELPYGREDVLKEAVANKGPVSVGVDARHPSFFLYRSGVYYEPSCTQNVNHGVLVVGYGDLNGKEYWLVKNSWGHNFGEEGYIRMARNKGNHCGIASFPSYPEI
The target in a further data set is Cathepsin B (Homo sapiens, UniProt P07858). Put plainly: Inhibition of human recombinant cathepsin B.
The nature of data set [4]: Apparent permeability across MDCK cells. To be noted: dog. Format: ADME, cell-based, Canis lupus familiaris.
Data set [5] is described as follows: Total clearance in Han Wistar rat. Format: ADME, organism-based. To be noted: in vivo.
Data set [6] can be described thus: Volume of distribution at steady state in Han Wistar rat. Format: ADME, organism-based. The settings on record: in vivo, read-out: Vdss.
Data set [7] can be described thus: Solubility in fasted state simulated intestinal fluid at pH 6.8. It is filed as physicochemical.
For a further data set, the species on record is Homo sapiens. Put plainly: Selectivity for human recombinant cathepsin K over human recombinant cathepsin L.

In the case of `CCCC[C@H](NC(=O)O[C@H](Cn1ccc(-c2ccc(C(F)(F)F)cc2)n1)C(C)(C)C)C(=O)CNC(=O)N1CCOCC1`, the IC50 at Cathepsin K was > 250 nM.
`CCCC[C@H](NC(=O)O[C@H](Cn1cnc2cc(Cl)c(Cl)cc21)C(C)(C)C)C(=O)CNS(=O)(=O)c1ccccn1`: the IC50 was 16 nM in data set [1], 3.2 nM at Cathepsin K, 10 nM on Cathepsin S and 40 nM on Cathepsin B. For the same compound, in [2], the bioavailability was 32%. The compound further registered a half-life in data set [3] of 46 min. In data set [4], the Papp is 15 ×10⁻⁶ cm/s. The compound also yielded a clearance in [5] of 31 mL/min/kg. Further, in data set [6], the Vd amounted to 1.3 L/kg. Moreover, the solubility in data set [7] is 28 µg/mL (≈ 46.8 µM).
Consider `CCCC[C@H](NC(=O)O[C@H](Cn1ccc(-c2ccc(C(F)(F)F)cc2)n1)C(C)(C)C)C(=O)C(=O)Nc1ccn[nH]1`, for which the IC50 in data set [1] is 8.7 nM; at Cathepsin K, 0.072 nM; on Cathepsin S, 0.21 nM; on Cathepsin B it was 20 nM. In data set [2], the bioavailability came to 42%. The compound also displayed a half-life in data set [3] of 320 min. The Papp in [4] turned out to be 9.1 ×10⁻⁶ cm/s. Further, the Vd in data set [6] stood at 1.6 L/kg. Besides, the solubility in [7] is 110 µg/mL (≈ 196 µM).
As to `CCCC[C@H](NC(=O)O[C@H](Cn1ccc(-c2cccnc2)n1)C(C)(C)C)C(=O)CNS(=O)(=O)c1ccccn1`, the IC50 stood at 100 nM in data set [1], 5.5 nM on Cathepsin K, 15 nM on Cathepsin S and 79 nM at Cathepsin B.
`CCCC[C@H](NC(=O)O[C@H](Cn1ccc(-c2ccncc2)n1)C(C)(C)C)C(=O)CNS(=O)(=O)c1ccccn1`: the IC50 came out at 38 nM in data set [1], 3.8 nM on Cathepsin K, 11 nM on Cathepsin S and 13 nM at Cathepsin B. This compound also gave a bioavailability in [2] of 100%. In data set [3], this compound had a half-life of 120 min. Further, the Papp in data set [4] is 6.8 ×10⁻⁶ cm/s. For the same compound, the clearance in data set [5] is 16 mL/min/kg. Further, the Vd in data set [6] was 1.7 L/kg. In data set [7], the solubility was 60 µg/mL (≈ 108 µM).
For the compound `C[C@H](NC(=O)O[C@H](Cn1ccc(C(F)(F)F)n1)C(C)(C)C)C(=O)CNS(=O)(=O)c1ccccn1`, the IC50 on Cathepsin K was 300 nM.
Same read-out and setting: the result for `CC(C)(C)[C@@H](Cn1ccc(-c2ccc(C(F)(F)F)cc2)n1)OC(=O)NCC(=O)CNS(=O)(=O)c1ccccn1` reads 65 nM.
For the compound `CCCC[C@H](NC(=O)O[C@H](Cn1ccc(-c2ccc(C(F)(F)F)cc2)n1)C(C)(C)C)C(=O)CNc1cccc(F)n1`, the IC50 is > 250 nM in data set [1], 2.1 nM on Cathepsin K, 19 nM at Cathepsin S and 68 nM at Cathepsin B. In addition, the Ratio IC50 in the data set filed under Homo sapiens was > 100.
For `CCCC[C@H](NC(=O)O[C@H](Cn1cc(-c2ccc(C(F)(F)F)cc2)cn1)C(C)(C)C)C(=O)CNS(=O)(=O)c1ccccn1` the same measures were 7100 nM, 7.6 nM, 26 nM, 72 nM and > 100.
Consider `C[C@H](NC(=O)O[C@H](Cn1ccc(-c2ccc(C(F)(F)F)cc2)n1)C(C)(C)C)C(=O)CNS(=O)(=O)c1ccccn1`, for which the half-maximal inhibitory concentration (IC50) in data set [1] is > 250 nM; on Cathepsin K, 18 nM; at Cathepsin S, 64 nM; on Cathepsin B, 310 nM. For the same compound, the bioavailability in [2] was 27%. Also, the half-life in [3] was found to be 32 min. Further, in data set [4], the Papp is 30 ×10⁻⁶ cm/s. Besides, in data set [5], the clearance was 82 mL/min/kg. Moreover, in [6], the Vd is 1.8 L/kg. This compound displayed a solubility in [7] of 97 µg/mL (≈ 167 µM).
For the compound `CCCC[C@H](NC(=O)O[C@H](Cn1ccc(C(F)(F)F)n1)C(C)(C)C)C(=O)CNS(=O)(=O)c1ccccn1`, the IC50 on Cathepsin K was found to be 32 nM. The bioavailability in data set [2] amounted to 20%. For the same compound, in data set [3], the half-life came to 24 min. Moreover, the Papp in data set [4] turned out to be 34 ×10⁻⁶ cm/s. In addition, in data set [5], the clearance came out at 21 mL/min/kg. The Vd in [6] was 0.46 L/kg.
As to `CCCC[C@H](NC(=O)O[C@H](Cn1cnc(-c2ccc(C(F)(F)F)cc2)c1)C(C)(C)C)C(=O)CNS(=O)(=O)c1ccccn1`, the IC50 in data set [1] stood at 1100 nM; at Cathepsin K, 6.4 nM; at Cathepsin S, 10 nM; at Cathepsin B, 130 nM. This compound yielded a bioavailability in data set [2] of 22%. In [3], this compound returned a half-life of 67 min. In data set [4], the Papp stood at 19 ×10⁻⁶ cm/s. The clearance in data set [5] amounted to 47 mL/min/kg. Besides, the Ratio IC50 in the data set filed under Homo sapiens is > 100. The Vd in data set [6] amounted to 1.6 L/kg. The compound further had a solubility in [7] of 40 µg/mL (≈ 64.1 µM).
`CC(C)C[C@H](NC(=O)c1cc2ccccc2o1)C(=O)N[C@@H](C)C(=O)CNS(=O)(=O)c1ccccn1`: the values for the IC50 on Cathepsin K, at Cathepsin S and on Cathepsin B were 7.5 nM, 20 nM and 59 nM, respectively. The compound further registered a half-life in [3] of 33 min.
As for `C[C@H](NC(=O)O[C@H](Cn1cnc2cc(Cl)c(Cl)cc21)C(C)(C)C)C(=O)CNS(=O)(=O)c1ccccn1`, the IC50 in data set [1] amounted to 38 nM; at Cathepsin K it was 1.4 nM; on Cathepsin S, 7.9 nM; on Cathepsin B, 71 nM.
On to `CCCC[C@H](NC(=O)O[C@H](Cn1ccc(-c2ccc(C(F)(F)F)cc2)n1)C(C)(C)C)C(=O)CNS(=O)(=O)c1ccccn1`, for which the IC50 in data set [1] was > 250 nM; on Cathepsin K, 4 nM; at Cathepsin S, 35 nM; on Cathepsin B it was 170 nM. This compound came in with a bioavailability in data set [2] of 21%. In addition, in data set [3], the half-life was 120 min. The Papp in [4] worked out at 16 ×10⁻⁶ cm/s. The clearance in data set [5] is 26 mL/min/kg. For the same compound, the Vd in data set [6] was determined as 1.8 L/kg. The compound further returned a solubility in data set [7] of 41 µg/mL (≈ 65.7 µM).

These data come from ChEMBL document CHEMBL1146330, “Acyclic, orally bioavailable ketone-based cathepsin K inhibitors” (Bioorg Med Chem Lett, 2007).
